We go through 4 compounds from patent US4594337A, “Methods of controlling mycoplasma infections” (Eli Lilly and Company, priority 1985, dated 1986).

Molecules are shown by their SMILES. Values after ≈ are worked out from the molar mass of the structure shown.

Holding throughout (assay type): cell-based
The test system of assay [1] is Mycoplasma hyopneumoniae S-5972. Briefly: MIC, conventional broth-dilution microtiter test, Mycoplasma hyopneumoniae S-5972. As to conditions: Mesomycoplasma hyopneumoniae, S5972. An excerpt:
(§1) The MIC's in Table I were obtained using a conventional broth-dilution microtiter test.

Assay [2] concerns Mycoplasma gallisepticum 34159. Nature of the assay: MIC, conventional broth-dilution microtiter test, Mycoplasma gallisepticum 34159 (tylosin-resistant). The note with it: Mycoplasmoides gallisepticum, Mycoplasma gallisepticum 34159, tylosin-resistant strain.
Text: as §1

Assay [3] has as its system Mycoplasma hyorhinis S-41313. Briefly: MIC, conventional broth-dilution microtiter test, Mycoplasma hyorhinis S-41313. As to conditions: S41313.
Text: as §1

Assay [4] has as its system Mycoplasma gallisepticum 38502. Nature of the assay: MIC, conventional broth-dilution microtiter test, Mycoplasma gallisepticum 38502 (tylosin-susceptible). The note with it: Mycoplasmoides gallisepticum, Mycoplasma gallisepticum 38502, tylosin-susceptible strain.
Text: as §1

In assay [5] the test system is Mycoplasma gallisepticum 41313. Nature of the assay: MIC, conventional broth-dilution microtiter test, Mycoplasma gallisepticum 41313 (tylosin-resistant). As to conditions: Mycoplasmoides gallisepticum, Mycoplasma gallisepticum 41313, tylosin-resistant strain.
Text: as §1

Assay [6] deals with Mycoplasma synoviae 46995. Nature of the assay: MIC, conventional broth-dilution microtiter test, Mycoplasma synoviae 46995. The note with it: Mycoplasmopsis synoviae.
Text: as §1

For orientation: MIC means the lowest concentration that inhibits growth of the organism. Lower therefore signals a more susceptible organism. Consider `CCCC(=O)OC1C(C)OC(OC2C(C)OC(OC3C(CC=O)CC(C)C(=O)C=CC(C)=CC(COC4OC(C)C(O)C(O)C4OC)C(CC)OC(=O)CC(OC(C)=O)C3C)C(O)C2N(C)C)CC1(C)O` (stereo not shown) [3-Acetyl-4"-(n-Butyryl)-macrocin, 3-O-acetyl-4"-O-(n-butyryl)macrocin], for which the MIC in assay [1] was 0.048 µg/mL (≈ 0.0473 µM); in assay [2], 6.25 µg/mL (≈ 6.16 µM); in assay [3], 0.39 µg/mL (≈ 0.385 µM); in assay [4], 0.195 µg/mL (≈ 0.192 µM); in assay [5], 3.12 µg/mL (≈ 3.08 µM); in assay [6], not above 0.048 µg/mL.

For `CCC1OC(=O)CC(OC(C)=O)C(C)C(OC2OC(C)C(O)C(N(C)C)C2O)C(CC=O)CC(C)C(=O)C=CC(C)=CC1COC1OC(C)C(O)C(O)C1OC` (stereo not shown) [3-Acetyl-lactenocin, 3-O-Acetyllactenocin], the MIC in assay [2] is more than 50 µg/mL; in assay [3] it was 25 µg/mL (≈ 31.3 µM); in assay [4], 0.78 µg/mL (≈ 0.975 µM); in assay [5], 50 µg/mL (≈ 62.5 µM); in assay [6], 0.39 µg/mL (≈ 0.488 µM).

Regarding `CCC1OC(=O)CC(OC(C)=O)C(C)C(OC2OC(C)C(OC3CC(C)(O)C(O)C(C)O3)C(N(C)C)C2O)C(CC=O)CC(C)C(=O)C=CC(C)=CC1COC1OC(C)C(O)C(O)C1OC` (stereo not shown) [3-Acetyl-macrocin, 3-O-Acetylmacrocin], the MIC amounted to 50 µg/mL (≈ 53 µM) in assay [2]; 6.25 µg/mL (≈ 6.62 µM) in assay [3]; 0.78 µg/mL (≈ 0.826 µM) in assay [4]; 50 µg/mL (≈ 53 µM) in assay [5]; 0.39 µg/mL (≈ 0.413 µM) in assay [6].

With `CCC1OC(=O)CC(OC(C)=O)C(C)C(OC2OC(C)C(OC3CC(C)(O)C(OC(=O)CC(C)C)C(C)O3)C(N(C)C)C2O)C(CC=O)CC(C)C(=O)C=CC(C)=CC1COC1OC(C)C(O)C(O)C1OC` (stereo not shown) [3-Acetyl-4"-Isovaleryl-macrocin, 3-O-acetyl-4"-O-isovalerylmacrocin], the MIC in assay [1] is 0.048 µg/mL (≈ 0.0467 µM); in assay [2], 3.12 µg/mL (≈ 3.03 µM); in assay [3], 0.39 µg/mL (≈ 0.379 µM); in assay [4] it was not above 0.048 µg/mL; in assay [5] it was 3.12 µg/mL (≈ 3.03 µM); in assay [6], not above 0.048 µg/mL.
